Experimental data from patent US12410124B2 (priority 2019, dated 2025).
Like-named read-outs stand apart in the source and are kept apart here.

Tests used:
[1] = system: midbrain CD11b; test: Midbrain CD11b protein expression in MPTP Parkinson's disease model mouse (western-blotting); assay type: in vivo; conditions: for Expression (CD11b/GAPDH): midbrain, MPTP Parkinson's disease model mouse, western-blotting
Description: (§1) Neurotoxins can be used to establish PD animal models. Currently, 1-methyl-4-phenyl-1,2,3,6-tetrahydropyridine (MPTP) is the sole synthetic toxin which is recognized to induce PD symptoms in human and non-human primates and in mice. Using MPTP subacute modeling method, C57BL/6J male mice were intraperitoneally injected with MPTP 30 mg/kg, once a day for 5 consecutive days. The experiment animals were divided into blank control group, MPTP model group, and compound treatment group. For the […] compound treatment group, the compound was administrated by gavage for 21 consecutive days after the completion of modeling; for the MPTP model group, the normal saline was administrated by gavage for 21 consecutive days after the completion of modeling; and for the blank control group, the normal saline was first intraperitoneally injected for 5 days, and then administrated by gavage for 21 days.
(§2) Neuron-glial cell network homeostasis disorder is an important factor for the selective and progressive death of substantia nigra dopaminergic neurons in PD. In the neurotoxic effect of MPTP, the excessive activations of microglial cells and astrocytes produce a variety of inflammatory cytokines and reactive oxygen species (ROS). These inflammatory factors and ROS amplify their respective toxicities and mediate malignant feedback loop, causing a cascade inflammation response and aggravating the pathological process of PD. CD11b and GFAP are the marker proteins for activations of microglial cells and astrocytes, respectively. Therefore, the effect of the target compounds on the activations of the microglial cells and astrocytes in the substantia nigra, hippocampus, and midbrain areas of MPTP-induced PD mice can be investigated, to explore the mechanism of the anti-PD effect of the target compounds by inhibiting the neuroinflammation.
[…] The experiment included blank control group, MPTP model group, positive control group (caffeic acid phenethyl ester, CAPE), prototype control group (styryl sulfone compounds 3B, 3C, 3D), and 3G, whose structures are shown as above), and target compound group.

[2] = system: substantia nigra GFAP; test: Number of substantia nigra astrocytes with GFAP positive expression in MPTP Parkinson's disease model mouse (immunohistochemistry); assay type: in vivo; conditions: for Positive cell number (astrocytes with GFAP positive expression): substantia nigra, MPTP Parkinson's disease model mouse, immunohistochemistry
Description: as §1, §2
(§3) Half of experiment mice in each group were taken to separate the midbrain after perfusion and fixation. The tissue was trimmed, and the substantia nigra area was taken to prepare paraffin sections. The GFAP immunohistochemical staining was performed for the statistics of the change in the number of astrocytes with GFAP positive expression. The experiment included blank control group, MPTP model group, positive control group (caffeic acid phenethyl ester, CAPE), prototype control group (styryl sulfone compounds 3B, 3C, 3D, and 3G, whose structures are shown as above), and target compound group.

[3] = system: HO-1; test: Midbrain HO-1 expression in MPTP Parkinson's disease model mouse (western blot); assay type: in vivo; conditions: for Expression (HO-1/GAPDH): midbrain, MPTP Parkinson's disease model mouse, western blot
Description: as §1
Oxidative stress is an important pathogenic mechanism of PD. Dopaminergic neurons are more sensitive to oxidative stress and are more susceptible to oxidative stress damage. Heme oxygenase (HO-1), a phase II enzyme, is also a well-known antioxidase. It plays an important protective role by catalyzing the conversion of free radicals into non-toxic products and increasing their water solubility to facilitate the elimination of free radicals, and maintain the redox balance in the body. It plays an important role in the process of protecting cells against oxidative stress damage. The activation of p38 protein phosphorylation has a negative regulatory effect on phase II enzymes. […] Using HO-1 as an indicator, the inhibitory effect of the target compounds on MPTP-induced oxidative stress damage in PD mice can be investigated.
HO-1 is expressed in astrocytes, microglial cells, and neurons. The total proteins of the midbrain tissue of mice in each experiment group were extracted, to determine the expression of phase II enzyme HO-1 in the midbrain of mice by western blot using GAPDH as the internal reference. The experiment included blank control group, MPTP model group, positive control group (caffeic acid phenethyl ester, CAPE), prototype control group (styryl sulfone compounds 3B, 3C, 3D, and 3G, whose structures are shown as above), and target compound group.

[4] = system: hippocampus GFAP; test: Number of hippocampus astrocytes with GFAP positive expression in MPTP Parkinson's disease model mouse (immunohistochemistry); assay type: in vivo; conditions: for Positive cell number (astrocytes with GFAP positive expression): hippocampus, MPTP Parkinson's disease model mouse, immunohistochemistry
Description: as §1, §2
as §3, with “hippocampus” for “substantia nigra”

[5] = system: hippocampus CD11b; test: Number of hippocampus microglial cells with CD11b positive expression in MPTP Parkinson's disease model mouse (immunohistochemistry); assay type: in vivo; conditions: for Positive cell number (microglial cells with CD11b positive expression): hippocampus, MPTP Parkinson's disease model mouse, immunohistochemistry
Description: as §1, §2
as §3, with “hippocampus” for “substantia nigra”, “CD11b” for “GFAP”, “microglial cells” for “astrocytes”

[6] = biological target: acetylcholinesterase (AchE) (Homo sapiens, UniProt P22303); test: biochemical
acetylcholinesterase (AchE), sequence (P22303 32-614, species assumed): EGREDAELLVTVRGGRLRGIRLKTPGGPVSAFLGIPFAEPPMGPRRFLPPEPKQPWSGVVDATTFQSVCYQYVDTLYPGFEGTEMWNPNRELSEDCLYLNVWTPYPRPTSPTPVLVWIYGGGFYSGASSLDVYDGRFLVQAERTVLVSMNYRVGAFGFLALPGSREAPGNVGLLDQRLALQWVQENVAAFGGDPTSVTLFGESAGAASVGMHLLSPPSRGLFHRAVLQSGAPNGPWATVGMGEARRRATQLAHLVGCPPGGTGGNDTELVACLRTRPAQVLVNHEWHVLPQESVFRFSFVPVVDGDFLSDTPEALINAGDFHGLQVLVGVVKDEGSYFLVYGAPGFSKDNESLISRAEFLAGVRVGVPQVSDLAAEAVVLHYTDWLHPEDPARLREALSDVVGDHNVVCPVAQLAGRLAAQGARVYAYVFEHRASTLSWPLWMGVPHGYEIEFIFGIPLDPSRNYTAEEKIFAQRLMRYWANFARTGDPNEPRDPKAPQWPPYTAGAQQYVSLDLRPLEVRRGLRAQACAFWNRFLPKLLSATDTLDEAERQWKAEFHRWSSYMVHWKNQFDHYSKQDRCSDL
Description: The modified Ellman method was used to determine the inhibitory activity on acetylcholinesterase. The principle lies in that acetylthiocholine iodide is decomposed under the action of acetylcholinesterase (AchE) to generate thiocholine. The thiocholine is quickly reacted with DTNB as the colour-developing agent to generate a yellow substance with light absorption at 405 nm. To a 96-well microplate, 50 μl of enzyme reaction buffer, 125 μl of DTNB (3 mM), 25 μl of test sample or positive control drug, and 25 μl of AchE (0.2 U/ml) were successively added. After incubation at room temperature for 5 min, 25 μl of ATCI (15 mM) was added. After incubation at room temperature for 8 min, the absorbance value was determined at 405 nm with a microplate reader. A blank control group without enzyme (25 μl PBS instead of the sample to be tested) was also established.

[7] = acetylcholinesterase, modified Ellman method, read-out: IC50

Row | SMILES | midbrain CD11b protein expression compared with the styryl sulfone prototype compounds [1] | Expression (CD11b/GAPDH) [1] | number of substantia nigra astrocytes with GFAP positive expression compared with the styryl sulfone prototype compounds [2] | Positive cell number (astrocytes with GFAP positive expression) [2] | midbrain HO-1 expression compared with the styryl sulfone prototype compounds [3] | Expression (HO-1/GAPDH) [3] | number of hippocampus astrocytes with GFAP positive expression compared with the styryl sulfone prototype compounds [4] | Positive cell number (astrocytes with GFAP positive expression) [4] | number of hippocampus microglial cells with CD11b positive expression compared with the styryl sulfone prototype compounds [5] | Positive cell number (microglial cells with CD11b positive expression) [5] | IC50 [6, 7] [µM] | IC50 [6] [µM]
1 | CCN(CC)C(=O)Oc1ccc(/C=C/S(=O)(=O)CCCc2ccccc2)cc1OC(=O)N(CC)CC [Compound C1-1, (E)-4-[2-(3-phenylpropylsulfonyl)ethenyl]-1,2-phenylenebis(diethylcarbamate)] | equivalent or lower | 1.11 ± 0.08 | significantly lower | 56 ± 4 | significantly higher | 0.88 ± 0.09 | significantly lower | 78 ± 3 | significantly lower | 7 ± 2 | 14.7 ± 3.51 | 
2 | CCN(C)C(=O)Oc1ccc(/C=C/S(=O)(=O)CC(c2ccc(-c3ccc(OC)c(OC)c3)cc2)[N+](=O)[O-])cc1OC(=O)N(C)CC (stereo not shown) [Compound M1-1, (E)-4-{2-[2-(3′,4′-dimethoxy-[1,1′-biphenyl]-4-yl)-2-nitroethylsulfonyl]ethenyl}-1,2-phenylenebis(N-ethyl-N-methylcarbamate)] |  | 0.46 ± 0.04 |  | 59 ± 3 |  | 1.29 ± 0.07 |  | 51 ± 5 |  | 5 ± 1 |  | 6.6 ± 0.71
3 | O=S(=O)(/C=C/c1ccc(O)c(O)c1)Cc1ccc(Cl)cc1 [Compound 3D, (E)-4-{2-[(4-chlorophenyl)mesyl]ethenyl}benzene-1,2-diol, reference compound] |  | 1.30 ± 0.10 |  | 110 ± 9 |  | 1.03 ± 0.20 |  | 106 ± 6 |  | 18 ± 3 | > 100 | 
4 | O=S(=O)(/C=C/c1ccc(O)c(O)c1)Cc1ccc(C(F)(F)F)cc1 [Compound 3B, (E)-4-{2-[(4-trifluoromethylphenyl)mesyl]ethenyl}benzene-1,2-diol, reference compound] |  | 1.31 ± 0.10 |  | 121 ± 10 |  | 0.56 ± 0.03 |  | 118 ± 8 |  | 16 ± 2 | > 100 | 
5 | COc1ccc(CC(=O)Oc2ccc(C(N)CS(=O)(=O)/C=C/c3ccc(OC(C)(C)C)c(OC(=O)N(C)c4ccccc4)c3)cc2)cc1 (stereo not shown) [Compound P1-3, (E)-4-{1-amino-2-[4-t-butoxy-3-(N-methyl-N-phenylcarbamoyloxy)styrylsulfonyl]ethyl}phenyl-2-(4-methoxyphenyl)acetate] |  | 1.09 ± 0.08 |  | 69 ± 5 |  | 0.77 ± 0.10 |  | 74 ± 3 |  | 16 ± 2 |  | 14.4 ± 2.04
6 | O=S(=O)(/C=C/c1ccc(O)c(O)c1)CCCc1ccccc1 [Compound 3C, (E)-4-{2-[(3-phenylpropyl)sulfonyl]ethenyl}benzene-1,2-diol, reference compound] |  | 1.02 ± 0.13 |  | 121 ± 13 |  | 0.44 ± 0.05 |  | 147 ± 4 |  | 20 ± 3 | > 100 | 
7 | C=CCOc1ccc(C/C=C/S(=O)(=O)/C=C/c2ccc(OC(C)=O)c(OC(=O)N(CC=C)CC=C)c2)cc1 [Compound K1-4, 4-{(E)-2-[(E)-3-(4-allyloxyphenyl)prop-1-en-1-yl]sulfonylethenyl}-2-(N,N-diallylcarbamoyloxy)phenyl acetate] |  | 1.09 ± 0.10 |  | 112 ± 4 |  | 1.02 ± 0.09 |  | 71 ± 4 |  | 13 ± 2 | 16.9 ± 1.22 | 
8 | CC[Si](CC)(Oc1ccc(C(Cl)S(=O)(=O)/C=C/c2ccc(OC(=O)N3CC(C)OC(C)C3)c(OC(=O)c3cccc(Cl)c3OC)c2)cc1)c1ccccc1 (stereo not shown) [Compound R1-5, (E)-4-{2-[4-(diethylphenylsiloxy)phenylchloromesyl]ethenyl}-2-(3-chloro-2-methoxybenzoyloxy)phenyl-2,6-dimethylmorpholine-4-carboxylate] |  | 1.25 ± 0.08 |  | 90 ± 6 |  | 0.87 ± 0.06 |  | 80 ± 2 |  | 17 ± 2 | 27.5 ± 3.49 | 
9 | CCN(CC)C(=O)Oc1ccc(/C=C/S(=O)(=O)Cc2ccc(C(C)(C)C)cc2)cc1OC(=O)N(CC)CC [Compound G1-1, (E)-4-{2-[(4-t-butylphenyl)mesyl]ethenyl}-1,2-phenylenebis(diethylcarbamate)] | equivalent or lower | 0.50 ± 0.06 | significantly lower | 76 ± 4 | significantly higher | 1.35 ± 0.10 | significantly lower | 66 ± 4 | significantly lower | 6 ± 1 | 10.8 ± 2.13 | 
